In patent US9725482B2, “Pentacyclic triterpenoid compound with modified structure and preparation method and use thereof” (Suzhou Botany Biomedicals Co., Ltd, priority 2013, dated 2017):

Key:
HaCat keratinocytes = experiment: In vitro inhibition of growth of skin keratinocyte (CCK-8); type: cell-based; details: 24 hours; for concentration that completely inhibits the growth of the skin keratinocyte: HaCat cells, CCK-8
Protocol: HaCat keratinocytes (purchased from ATCC) in a logarithmic growth phase were inoculated in a 96-well plate, with 2×10^4 cells for each well. The compound of formula (II) and AKBA were added respectively in a concentration gradient. The total volume was […]. DMSO was added in the control group to a final concentration of 0.25%. […] culture medium was added into the blank control well. Each group had three parallel experiments. After cultured in a cell incubator for 24 hours, […] CCK-8 solution was added into each well. Then the plate was placed in the incubator for incubation at 37° C. and 5% CO2 for 4 hours. OD value was measured at 450 nm by a microplate reader. The inhibition rate was calculated by the following equation: Inhibition Rate=[1−(OD of the test group/OD of the control group)]×100%.

5-LOX = target: T1, 5-LOX (Homo sapiens, UniProt P09917); details: Sailer et al., British J Pharmacology, 1996; cited from earlier work
T1 sequence (P09917 1-674): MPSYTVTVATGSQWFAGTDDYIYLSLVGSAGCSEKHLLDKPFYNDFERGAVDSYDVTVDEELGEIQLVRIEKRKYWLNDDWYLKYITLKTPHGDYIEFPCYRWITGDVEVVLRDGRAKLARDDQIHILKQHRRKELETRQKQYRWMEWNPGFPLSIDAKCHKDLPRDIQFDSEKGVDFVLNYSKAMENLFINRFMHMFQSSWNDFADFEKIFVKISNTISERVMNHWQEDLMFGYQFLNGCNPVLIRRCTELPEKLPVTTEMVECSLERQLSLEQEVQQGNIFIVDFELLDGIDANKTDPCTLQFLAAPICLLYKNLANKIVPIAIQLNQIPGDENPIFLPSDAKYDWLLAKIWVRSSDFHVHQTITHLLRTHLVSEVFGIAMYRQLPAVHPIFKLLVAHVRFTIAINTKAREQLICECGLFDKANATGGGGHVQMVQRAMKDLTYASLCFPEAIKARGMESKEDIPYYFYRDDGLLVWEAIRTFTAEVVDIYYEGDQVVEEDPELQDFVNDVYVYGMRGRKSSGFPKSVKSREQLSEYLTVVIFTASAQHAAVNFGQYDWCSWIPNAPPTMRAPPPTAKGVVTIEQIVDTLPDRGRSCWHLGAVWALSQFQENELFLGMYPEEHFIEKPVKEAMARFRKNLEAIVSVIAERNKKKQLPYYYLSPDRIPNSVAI

mouse psoriasis model [1] = experiment: Treatment of mice psoriasis induced by imiquimod with gel formulation; type: in vivo, Balb/c mice; details: 0.5% (w/w) gel, day 8 to day 14, topical
Protocol: (§1) Thirty age- and sex-matched Balb/c mice, 10 in the control group using a blank gel, 10 in the treatment group using AKBA gel and 10 in the treatment group using CKBA gel, were coated on their backs by imiquimod (62.5 mg/day for each mouse) for 7 days to establish mouse psoriasis model. At day 8 to day 14, the blank gel (Control), AKBA gel (0.5% (w/w)) and CKBA gel (0.5% (w/w)) were administered to the mice for treatment, respectively. Imiquimod was administered every two days to the back of the mice to maintain the skin inflammation. At day 15 pictures were took for the skin lesions of the psoriasis mice. Then the mice were sacrificed by cervical vertebra luxation and the skin from the skin lesion was cut and fixed by 4% paraformaldehyde to prepare HE pathological sections.
as §1, with “(0.2%” for “(0.5%”

Treg = experiment: In vitro differentiation of Treg from naive T cells (flow cytometry); type: cell-based, C57BL/6J mice; details: 2 μm, 4 days, FoxP3 staining
Protocol: (§2) C57BL/6J mice of 6-8 week old were sacrificed by cervical vertebra luxation. The spleen was taken and ground. The cells were sieved to prepare a single-cell suspension. After dyeing on their surfaces by CD4-APC, CD25 PerCP-Cy 5.5 and CD62L-FITC, the cells were sorted by BD FACSAria III flow cytometry. The naïve T cells, i.e., CD4^+CD25^−CD62L^hi+ T cells, were used for induced differentiation of TH1, TH17 and Treg. A gradient of concentration of CKBA was added for incubation. Cells were collected after 4 days and then further cultured in incubator at 37° C. and 5% CO2 for 4-6 hours in 1640 complete culture medium supplemented with 750 ng/ml ionomycin and 50 ng/ml phorbol myristate acetate (PMA) and GolgiPlug. After suspension with PBS, the surface of the cell was stained by CD4-APC. After staining at 4° C. for 30 minutes, the cells were re-suspended once and then broke for 20 minutes at 4[…]. The cells were washed again by lotion and then stained by IFN-γ, IL-17A and FoxP3.

mouse psoriasis model [2] = experiment: Treatment of mice psoriasis induced by imiquimod with gel formulation; type: in vivo, Balb/c mice; details: 0.2% (w/w) gel, day 8 to day 14, topical
TH1 cells = experiment: Inhibition of in vitro differentiation of TH1 cells from naive T cells (flow cytometry); type: cell-based, C57BL/6J mice; details: 2 μm, 4 days, IFN-γ staining
Protocol: as §2

TH17 cells = experiment: Inhibition of in vitro differentiation of TH17 cells from naive T cells (flow cytometry); type: cell-based, C57BL/6J mice; details: 2 μm, 4 days, IL-17A staining
Protocol: as §2

| Compound | concentration that completely inhibits the growth of the skin keratinocyte (HaCat keratinocytes) [µM] | 5-LOX inhibitory activity among boswellic acids (5-LOX) | mice psoriasis phenotype (mouse psoriasis model [1]) | number of the inflammatory cells in dermis (mouse psoriasis model [1]) | skin thickness (mouse psoriasis model [1]) | inhibition on differentiation of Treg (Treg) | mice psoriasis (mouse psoriasis model [2]) | number of the inflammatory cells in dermis (mouse psoriasis model [2]) | skin thickness (mouse psoriasis model [2]) | inhibition of in vitro differentiation of TH1 (TH1 cells) | inhibiting division and proliferation of HaCat cells as compared to AKBA (HaCat keratinocytes; concentration gradient) | treatment of mice psoriasis as compared to AKBA (mouse psoriasis model [1]) | inhibition of in vitro differentiation of TH17 (TH17 cells) |
| --- | --- | --- | --- | --- | --- | --- | --- | --- | --- | --- | --- | --- | --- |
| CC(=O)O[C@@H]1CC[C@@]2(C)C(CC[C@]3(C)C2C(=O)C=C2C4[C@@H](C)[C@H](C)CC[C@]4(C)CC[C@]23C)[C@@]1(C)C(=O)O (stereo partly drawn) [AKBA, Acetyl-11-keto-β-boswellic acid, reference compound] | 100 | the most obvious 5-LOX inhibitory activity | effectively relieve | significantly reduce | significantly reduce | – | – | – | – | – | – | – | – |
| C[C@H]1[C@H](C)CC[C@]2(C)CC[C@]3(C)C(=CC(=O)[C@@H]4[C@@]5(C)CC[C@@H](OC(=O)C6CCCCC6)[C@](C)(C(=O)O)[C@@H]5CC[C@]43C)[C@H]12 [CKBA, 3-o-α-cyclohexanoyl-11-keto-β-boswellic acid] | 20 | – | effectively relieve | significantly reduce | significantly reduce | no inhibition | effectively cure | significantly reduce | significantly reduce | very effectively inhibit | more effective | more effectively treat | very effectively inhibit |
